Data on 6 substances can be found in US20100056443A1, “RADIOPHARMACEUTICAL TO BE USED IN DISTINCTION BETWEEN INFLAMMATIONS AND INFECTIONS IN ORTHOPAEDIC IMPLANTS” (priority 2006, published 2010).

No end group written: not given here.

The test system of one experiment is Escherichia Coli. To be noted: cited from earlier work.
The next experiment has as its system Gram-negative bacteria. To be noted: in words; HBD-3: P. Aeruginosa, E. Coli; cited from earlier work.
The next experiment relates to yeasts. The note with it: in words; b28: yeast C. albicans; cited from earlier work.
In experiment [1] the test system is Gram-positive bacteria (Streptococcus pyogenes, S. Aureus). The note with it: in words; including multi-resistant S. aureus and vancomycin-resistant Enterococcus Faecium; cited from earlier work.
Another experiment has as its system S. Carnosous. The note with it: strong antimicrobial activity; cited from earlier work.
Experiment [2] concerns S. Aureus. The note with it: weak antimicrobial activity; cited from earlier work.
In the next experiment the test system is P. aeruginosa. The note with it: strong antimicrobial activity; cited from earlier work.
A further experiment concerns B. cepacea. The note with it: weak antimicrobial activity; cited from earlier work.
In a further experiment the test system is S. pneumoniae. To be noted: weak antimicrobial activity; cited from earlier work.
Another experiment relates to S. cerevisiae. To be noted: weak antimicrobial activity; cited from earlier work.
Experiment [3] relates to Gram-positive and Gram-negative bacteria. To be noted: cited from earlier work.
Another experiment concerns E. Coli. Kind of experiment: In vitro control of the biological activity of radiomarked HBD-3 (colony count on agar plates). It is filed as cell-based. The note with it: for Number of CFU existing in the plates: E. Coli. The procedure:
(§1) The control was performed as described by Harwing et al. Methods Enzymology 1994, 236: 160-172. In particular, the aliquote portion (20 μl) of a bacterial suspension of S. Aureus containing 5×10^6 CFU/ml was incubated (2 hours at 37° C.) with 200 μl of radiomarked HBD-3 (1.2 μg) and 75 μl of a suitable dilution of a culture broth (Tryptic Soy Broth). After incubation, two samples with dilution factors equalling to 1:1345 and 1:13450 were derived from the mixture. Twentyfive μl of these samples were collected and sown with sterile rod onto plates containing a culture medium (agar plate). After incubation for 24 hours at 37° C. the colonies were counted. A value higher than 800 CFU was considered not assessable due to the difficulty in counting.
(§2) An analogous experiment was carried out, under the same conditions, by using 200 μl of sterile buffer instead of the radiomarked HBD-3.
Both tests illustrated above, aimed at testing the sensibility of S. Aureus to the radiomarked HBD-3, were repeated, under identical conditions, with E. Coli with the same purposes. The results are shown in Table III and in FIGS. 1 and 2.

Experiment [4] concerns S. Aureus. The description is as above. It is filed as cell-based. To be noted: for Number of CFU existing in the plates: S. Aureus, 1.2 μg radiomarked HBD-3, 2 hours at 37° C. As for the experimental part:
as §1, §2

For the next experiment, the system named is infection by S. Aureus. Kind of experiment: Infection detection by 99mTc-HBD-3 in experimental animal model (tissue counting: infection vs sterile inflammation vs normal muscle). It is filed as in vivo, Wistar male rats. The procedure: Tissue samples were collected from the infection and inflammation seats after 1, 3 and 5 hours as from the injection of the tracer for each group of rats. Such samples were counted in a well-like counter. The countings expressed in terms of cpm/g of tissue were compared to the countings of properly collected normal muscle tissue samples. […] The results have been interpreted as indicating a specific bond of radiomarked recombinant HBD-3 with the S. Aureus.
The rats Nr. 3, 6 and 9 had received a weight dose in marked product higher than the rats Nr. 2, 5 and 8 which, in turn, had received a dose of the same product higher than the rats 1, 4 and 7. As it can be seen, a greater ratio between countings measured onto the abscess seat and those recorded onto the inflammation seat and onto the normal muscle corresponds to a higher dose of radiomarked peptide. Such run lets assuming a dose-depending ratio of dependency of the radiopharmaceutical captation.

Where [5] appears, read: dilution 1:1345, >800 CFU not assessable.

For “HBD-1: human β-defensin, constitutive expression (DHYNCVSSGGQCLYSACPIFTKIQGTCYRGKAKCCK; UniProt P60022 33-68, looked up)”, in the experiment with Escherichia Coli (at micro-molecular concentrations), the Activity result is reported as “Bactericide*”.
“HBD-3: human beta-defensin-3, antimicrobial peptide weighing 5,15 kDa (GIINTLQKYYCRVRGGRCAVLSCLPKEEQIGKCSTRGRKCCRRKK; Beta-defensin 103; UniProt P81534 23-67, looked up)”: the Activity entry (in the experiment on Gram-negative bacteria; in the experiment with yeasts; in [1]) was “Bactericide” in each case.
On to “HBD-4: human β-defensin, constitutive expression (EFELDRICGYGTARCRKKCRSQEYRIGRCPNTYACCLRKWDESLLNRTKP; UniProt Q8WTQ1 23-72, looked up)”, for which the MIC entry with S. Carnosous is “(MIC = 4.5 μg/ml)”; in the experiment on S. Aureus [2], “(MIC > 100 μg/ml);”; in the experiment on P. aeruginosa, “(MIC = 4.1 μg/ml)”; with B. cepacea, “(MIC > 100 μg/ml);”; with S. pneumoniae, “(MIC > 100 μg/ml);”; in the experiment on S. cerevisiae it was “(MIC > 100 μg/ml);”. Besides, the MIC result in the experiment with Escherichia Coli (weak antimicrobial activity) was “(MIC > 100 μg/ml);”.
Turning to “HNP-1: human α-defensin inside neutrophils”, the Bactericide concentrations result in [3] (Gram-positive and Gram-negative bacteria) is given as “greater than 100 μl;”.
“HNP-2: truncated human α-defensin (CYCRIPACIAGERRYGTCIYQGRLWAFCC; Neutrophil defensin 2; UniProt P59665 66-94, looked up)”: the Activity entry in [3] (in words, relative to HNP-1) was “Like HPN-1”.
As to “radiomarked HBD-3: recombinant human β-defensin-3 marked with 99mTc+ exa-coordinated with 3 molecules of CO and H2O (GIINTLQKYYCRVRGGRCAVLSCLPKEEQIGKCSTRGRKCCRRKK; cysteine pairing not given here; also: 99mTc(CO)3 label, site not given here; UniProt P81534 23-67, looked up)”, the “Number of CFU existing in the plates” value in the experiment on E. Coli (setting [5]) is over 800 CFU; in the experiment on E. Coli (dilution 1:13450), 310 CFU; in the experiment on S. Aureus [4] (setting [5]), 348 CFU; in the experiment on S. Aureus [4] (dilution 1:13450), 17 CFU. In addition, the “biological activity of HBD-3 after marking with 99mTc” value in the experiment on E. Coli (towards E. Coli (lower than towards S. Aureus)) and in the experiment on S. Aureus [4] (towards S. Aureus (greater than towards E. Coli)) was “maintained biological activity” throughout. Moreover, the “tracer's captation in the infection seats relative to the inflammation seats” value in the experiment on infection by S. Aureus (rats, 5 hours as from the tracer's injection, cpm/g of tissue) was 3 times. For the same substance, the “fixation of tracer, inflammatory lesions versus normal muscles” value in the experiment on infection by S. Aureus (rats, in the whole experiment (1, 3 and 5 hours)) is “no significant fixation differences”. Moreover, in the experiment with infection by S. Aureus (rats, one hour as from the injection), the “tracer's captation, infection seats versus inflammation seats” value was “no significant differences”. For the same substance, in the experiment with infection by S. Aureus (single rats 1-9, doses from 1,6 to 5,2 μg), the “dependency of the radiopharmaceutical captation ratio (abscess vs inflammation seat and normal muscle) on dose” value is on record as “dose-depending”.
